Tested on: SMN2-on minigene
Assay: SMN2-on cassette Firefly luciferase reporter assay in transfected HEK293 cells
Assay type: cell-based, Human
Conditions: HEK293 cells, varying doses
Description: Cell culture, transfection, and LMI070/RG7800 treatment. Human embryonic kidney (HEK293) cells (obtained from CHOP Research Vector Core stock) were maintained in DMEM media containing 10% Fetal Bovine Serum (FBS), 1% L-Glutamine and 1% penicillin/streptomycin at 37° C. with 5% CO2. Cells were cultured in 24 well plates and transfected at 80-90% confluence using Lipofectamine 2000 transfection reagent, according to the manufacturer’s protocol. For all experiments, 4 hours after plasmid transfection, cells were treated with LMI070 (MedChemExpress, HY-19620, suspended in DMSO) or RG7800 (MedChemExpress, HY-101792A, suspended in H2O) at the indicated concentrations. Cells were tested for mycoplasma by Research Vector Core. None of the cells used in the study were listed in ICLAC database of commonly misidentified cell lines.
In vitro luciferase assays. HEK293 cells were cultured in DMEM (10% FBS (v/v), 1% Pen/ Strep (v/v), and 1% L-glutamine (v/v) in a 24-well plate. At 70%-80% confluence, cells were co-transfected with the Xon.Firefly luciferase cassettes (0.3 µg/well) and a SV40p-Renilla luciferase cassette as transfection control (0.02 µg/well). Four hours after transfections cells were treated either with LMI070 or RG7800 at indicated concentrations. At 24 h after transfection, cells were rinsed with ice-cold PBS and Renilla and Firefly luciferase activities were assessed using the Dual-Luciferase Reporter Assay System (Promega) according to the manufacturer’s instructions. Luminescent readouts were obtained with a Monolight 3010 luminometer (Pharmigen). Relative light units (RLUs) were calculated as the quotient of […] RLUs and results expressed relative to mock treated control cells.
For this, SMN2-on cassettes were generated to provide drug-induced reporter gene expression. HEK293 cells were transfected with the SMN2-on expression cassettes and luciferase activity evaluated in response to varying doses of LMI070 or RG7800. […]

For CCc1nc(C)cn2nc(-c3cc(=O)n4cc(C5CCN(C)CC5)cc(C)c4n3)cc12 [RG7800], the “luciferase activity from the SMN2-on minigene” value was “induced luciferase activity”.

— patent US20230340498A1, “COMPOSITIONS AND METHODS FOR INDUCIBLE ALTERNATIVE SPLICING REGULATION OF GENE EXPRESSION” (The Children's Hospital of Philadelphia, priority 2020, published 2023)
